Laboratory results taken from patent US10947188B2, “Small molecule ferroptosis inducers” (THE TRUSTEES OF COLUMBIA UNIVERSITY IN THE CITY OF NEW YORK, priority 2016, dated 2021).
In brackets after ≈: the same amount, converted by molar mass.

What follows are compounds tested on HT-1080 cells (assay: Lethality of commercially available CIL41/70 structural analogs). Details: Homo sapiens, tested once in technical triplicates.
Format: cell-based
Protocol: 1,000 cells per 36 μl were seeded in each well in 384-well plates. Lethal compounds were dissolved, and a twofold, 12-point dilution series was prepared in DMSO. Compound solutions were further diluted with media at 1:25, and 4 μl per well of the diluted solutions was added to cell cultures immediately after cells were seeded. […] When other cell-death-modulating compounds (100 nM sodium selenite, 1 μM cerivastatin, 100 μg/mL mevalonic acid) were used in cotreatments, they were supplemented to cell culture for 24 h before lethal compounds were added to cell culture, after which cells were further incubated for 24 h at 37° C. under 5% CO2. On the day of the viability measurement, we added 10 μl per well of 50% Alamar Blue diluted in media (Life Technologies) and further incubated the cells at 37° C. for 6 h. Fluorescence intensity (excitation/emission: 530/590) was measured with a Victor 3 plate reader (PerkinElmer), and the normalized viability was calculated as VL=(IL−I0)/(IV−I0), where VL, I0, IV, and IL are the normalized viability and the raw fluorescence intensities from the wells containing media, cells treated with a vehicle (negative control), and cells with the lethal compound (L), respectively. When the effect of a chemical modulator (M) on L was calculated, we instead used the equation VL|M=(IM,L−I0)/(IM,V−I0), where VL|M, IM,L and IM,V are the normalized viability, and fluorescence intensity from cells treated with […], respectively. The viability was typically measured in biological triplicate unless otherwise specified. A representative dose-response curve, the mean and standard error of normalized viability from one replicate were plotted. HT-1080 viability after modulator treatments corresponding to FIG. 3C and FIGS. 5E-5F is available in FIGS. 19A-19C.
Their lethality was tested once in HT-1080 cells in technical triplicates.

Row | Structure (SMILES) | EC50
1 | COc1ccccc1C/C(N)=N/OC(=O)COc1ccc(Br)cc1 [CB41] | > 20 µg/mL
2 | N/C(Cc1ccc(Cl)cc1)=N\OC(=O)COc1ccc(Br)cc1 [CB42] | > 20 µg/mL
3 | N/C(Cc1ccc([N+](=O)[O-])cc1)=N\OC(=O)COc1ccc(Br)cc1 [CB43] | > 20 µg/mL
4 | Cc1cccc(OCC(=O)O/N=C(\N)Cc2cccc3ccccc23)c1 [CB44] | > 20 µg/mL
5 | COc1ccccc1C/C(N)=N/OC(=O)COc1ccc(Br)c(C)c1 [CB45] | > 20 µg/mL
6 | Cc1ccccc1OCC(=O)O/N=C(\N)Cc1cccc2ccccc12 [CB46] | > 20 µg/mL
7 | COc1ccc(C/C(N)=N/OC(=O)COc2ccc(C)cc2Br)cc1 [CB47] | > 20 µg/mL
8 | N/C(Cc1ccc(Cl)c(Cl)c1)=N\OC(=O)COc1ccccc1 [CB48] | > 20 µg/mL
9 | COc1ccccc1C/C(N)=N/OC(=O)COc1cc(C)c(Cl)c(C)c1 [CB49] | 7.23 µg/mL (≈ 19.2 µM)
10 | Cc1cc(OCC(=O)O/N=C(\N)Cc2ccc([N+](=O)[O-])cc2)cc(C)c1Cl [CB50] | > 20 µg/mL
11 | COc1ccc(CC(=O)O/N=C(\N)Cc2ccc([N+](=O)[O-])cc2)cc1OC [CB51] | > 20 µg/mL
12 | COc1ccccc1C/C(N)=N/OC(=O)COc1ccc(Cl)cc1 [CB52] | > 20 µg/mL
13 | COc1ccc(C/C(N)=N/OC(=O)COc2ccc3ccccc3c2)cc1 [CB53] | > 20 µg/mL
14 | COc1ccc(C[C@@H](N)NOC(=O)C(c2ccccc2)c2ccccc2)cc1OC [CB54] | > 20 µg/mL
15 | N/C(Cc1ccc(Cl)cc1)=N\OC(=O)CCc1ccccc1 [CB55] | > 20 µg/mL
16 | N/C(Cc1ccc([N+](=O)[O-])cc1)=N\OC(=O)C(c1ccccc1)c1ccccc1 [CB56] | 4.05 µg/mL (≈ 10.4 µM)
17 | N[C@H](Cc1ccc([N+](=O)[O-])cc1)NOC(=O)COc1ccc2ccccc2c1 [CB57] | > 20 µg/mL
18 | N/C(Cc1ccc(Cl)cc1)=N\OC(=O)C1CCCCC1 [CB58] | 17.6 µg/mL (≈ 59.7 µM)
19 | COc1ccc(CC(=O)O/N=C(\N)Cc2ccc(Cl)cc2Cl)cc1OC [CB59] | > 20 µg/mL
20 | COc1ccc(C/C(N)=N/OC(=O)Cc2ccc(OC)c(OC)c2)cc1 [CB60] | > 20 µg/mL
21 | COc1ccccc1C/C(N)=N/OC(=O)COc1ccc2ccccc2c1 [CB61] | > 20 µg/mL

Row | Structure (SMILES) | EC50
22 | COc1ccccc1C/C(N)=N/OC(=O)/C=C/c1ccccc1 [CB62] | 8.63 µg/mL (≈ 27.8 µM)
23 | COc1ccc(C/C(N)=N/OC(=O)CCc2ccccc2)cc1 [CB63] | > 20 µg/mL
24 | COc1ccc(CC(=O)O/N=C(\N)Cc2cccc3ccccc23)cc1OC [CB64] | > 20 µg/mL
25 | COc1ccc(C/C(N)=N/OC(=O)Cc2ccccc2)cc1OC [CB65] | > 20 µg/mL
26 | COc1ccc(C/C(N)=N/OC(C)=O)cc1OC [CB66] | > 20 µg/mL
27 | N/C(Cc1ccc([N+](=O)[O-])cc1)=N\OC(=O)COc1ccccc1Cl [CB67] | > 20 µg/mL
28 | N/C(Cc1cccs1)=N\OC(=O)COc1ccccc1Cl [CB68] | > 20 µg/mL
29 | N/C(Cc1cccs1)=N\OC(=O)C12CC3CC(CC(C3)C1)C2 [CB69] | 2.09 µg/mL (≈ 6.56 µM)
30 | Cc1cc(OCC(=O)O/N=C(\N)Cc2ccc([N+](=O)[O-])cc2)ccc1Cl [CB71] | > 20 µg/mL
31 | COc1ccc(OCC(=O)O/N=C(\N)Cc2ccc(Cl)cc2Cl)cc1 [CB72] | > 20 µg/mL
32 | N/C(Cc1cccc2ccccc12)=N\OC(=O)COc1ccccc1Cl [CB73] | > 20 µg/mL
33 | COc1ccc(OCC(=O)O/N=C(\N)Cc2cccs2)cc1 [CB74] | > 20 µg/mL
34 | N/C(Cc1cccs1)=N\OC(=O)COc1ccc(Cl)cc1Cl [CB75] | > 20 µg/mL
35 | N/C(Cc1ccc([N+](=O)[O-])cc1)=N\OC(=O)COc1ccc(Br)cc1Cl [CB76] | > 20 µg/mL
36 | N/C(Cc1ccc([N+](=O)[O-])cc1)=N\OC(=O)CCCc1ccccc1 [CB77] | > 20 µg/mL
37 | N/C(Cc1cccs1)=N\OC(=O)COc1ccc(Br)cc1Cl [CB78] | > 20 µg/mL
38 | CCc1ccc(OCC(=O)O/N=C(\N)Cc2ccc([N+](=O)[O-])cc2)cc1 [CB79] | > 20 µg/mL
39 | N/C(Cc1ccc([N+](=O)[O-])cc1)=N\OC(=O)Cc1ccccc1 [CB80] | > 20 µg/mL
40 | CCc1ccc(OCC(=O)O/N=C(\N)Cc2cccc3ccccc23)cc1 [CB81] | > 20 µg/mL
41 | CC(Oc1ccc(Cl)cc1Cl)C(=O)O/N=C(\N)Cc1ccc([N+](=O)[O-])cc1 (stereo not drawn) [CB82] | > 20 µg/mL
42 | N/C(Cc1ccc([N+](=O)[O-])cc1)=N\OC(=O)CC1CCCCC1 [CB83] | > 20 µg/mL

Row | Structure (SMILES) | EC50
43 | COc1ccc(CC(=O)O/N=C(\N)Cc2ccc(OC)cc2)cc1 [CB84] | > 20 µg/mL
44 | N/C(Cc1cccc2ccccc12)=N\OC(=O)CC1CCCCC1 [CB85] | > 20 µg/mL
45 | COc1ccc(CC(=O)C/N=C(\N)Cc2cccc3ccccc23)cc1 [CB86] | > 20 µg/mL
46 | Cc1ccc(OCC(=O)O/N=C(\N)Cc2ccc(Cl)cc2Cl)cc1C [CB87] | > 20 µg/mL
47 | CC(C)c1ccc(OCC(=O)O/N=C(\N)Cc2ccc(Cl)cc2Cl)cc1 [CB88] | > 20 µg/mL
48 | Cc1ccc(OCC(=O)O/N=C(\N)Cc2cccc3ccccc23)cc1C [CB89] | > 20 µg/mL
49 | CC(C)c1ccc(OCC(=O)O/N=C(\N)Cc2cccc3ccccc23)cc1 [CB90] | > 20 µg/mL
50 | COc1ccc(C/C(N)=N/OC(=O)COc2ccc(C)c(C)c2)cc1 [CB91] | > 20 µg/mL
51 | Cc1ccc(OCC(=O)O/N=C(\N)Cc2ccc([N+](=O)[O-])cc2)cc1C [CB92] | > 20 µg/mL
52 | CC(C)c1ccc(OCC(=O)O/N=C(\N)Cc2ccc([N+](=O)[O-])cc2)cc1 [CB93] | > 20 µg/mL
53 | Cc1ccc(OCC(=O)ON[C@H](N)Cc2cccs2)cc1C [CB94] | > 20 µg/mL
54 | Cc1cc(OCC(=O)O/N=C(\N)Cc2ccc([N+](=O)[O-])cc2)cc(C)c1Br [CB95] | > 20 µg/mL
55 | N/C(Cc1ccc([N+](=O)[O-])cc1)=N\OC(=O)CCC1CCCCC1 [CB96] | > 20 µg/mL
56 | COc1ccccc1CC(=O)O/N=C(\N)Cc1ccc(Cl)cc1Cl [CB97] | > 20 µg/mL
57 | CCC(C(=O)O/N=C(\N)Cc1ccc(Cl)cc1Cl)c1ccccc1 (stereo not drawn) [CB98] | 4.46 µg/mL (≈ 12.2 µM)
58 | COc1ccccc1CC(=O)O/N=C(\N)Cc1ccc([N+](=O)[O-])cc1 [CB99] | > 20 µg/mL
59 | N/C(Cc1ccc(Cl)cc1Cl)=N\OC(=O)Cc1cccs1 [CB100] | > 20 µg/mL
60 | COc1ccccc1OCC(=O)O/N=C(\N)Cc1ccc(Cl)cc1Cl [CB101] | > 20 µg/mL
61 | Cc1cc(OCC(=O)O/N=C(\N)Cc2cccc3ccccc23)cc(C)c1Br [CB102] | > 20 µg/mL
62 | N/C(Cc1ccc([N+](=O)[O-])cc1)=N\OC(=O)Cc1cccs1 [CB103] | > 20 µg/mL
63 | Cc1cc(Br)ccc1OCC(=O)O/N=C(\N)Cc1ccc([N+](=O)[O-])cc1 [CB104] | > 20 µg/mL

Row | Structure (SMILES) | EC50
64 | N/C(Cc1cccc2ccccc12)=N\OC(=O)CCC1CCCCC1 [CB105] | > 20 µg/mL
65 | Cc1cc(OCC(=O)O/N=C(\N)Cc2ccc(Cl)cc2Cl)cc(C)c1Br [CB106] | > 20 µg/mL
66 | Cc1cc(Br)ccc1OCC(=O)O/N=C(\N)Cc1cccc2ccccc12 [CB107] | > 20 µg/mL
67 | COc1ccccc1CC(=O)O/N=C(\N)Cc1cccc2ccccc12 [CB108] | > 20 µg/mL
68 | N/C(Cc1cccc2ccccc12)=N\OC(=O)Cc1cccs1 [CB109] | > 20 µg/mL
69 | Cc1cc(Br)ccc1OCC(=O)O/N=C(\N)Cc1ccc(Cl)cc1Cl [CB110] | > 20 µg/mL
70 | CCC(C(=O)O/N=C(\N)Cc1cccc2ccccc12)c1ccccc1 (stereo not drawn) [CB111] | 10.7 µg/mL (≈ 30.9 µM)
71 | Cc1cccc(OCC(=O)O/N=C(\N)Cc2ccc(Cl)c(Cl)c2)c1C [CB112] | > 20 µg/mL
72 | CC(C)(Oc1ccc(Cl)cc1)C(=O)O/N=C(\N)Cc1cccc2ccccc12 [CB113] | > 20 µg/mL
73 | N/C(Cc1cccc2ccccc12)=N\OC(=O)Cc1ccccc1[N+](=O)[O-] [CB114] | > 20 µg/mL
74 | N/C(Cc1ccc([N+](=O)[O-])cc1)=N\OC(=O)CC(c1ccccc1)c1ccccc1 [CB115] | 2.42 µg/mL (≈ 6 µM)
75 | CC(C)(Oc1ccc(Cl)cc1)C(=O)O/N=C(\N)Cc1ccc(Cl)c(Cl)c1 [CB116] | 5.49 µg/mL (≈ 13.2 µM)
76 | CC(C)(Oc1ccc(Cl)cc1)C(=O)O/N=C(\N)Cc1ccc([N+](=O)[O-])cc1 [CB117] | > 20 µg/mL
77 | Cc1cccc(OCC(=O)O/N=C(\N)Cc2ccc([N+](=O)[O-])cc2)c1C [CB118] | > 20 µg/mL
78 | CC(C)(Oc1ccc(Cl)cc1)C(=O)O/N=C(\N)Cc1ccc(Cl)cc1Cl [CB119] | > 20 µg/mL
79 | Cc1cccc(OCC(=O)O/N=C(\N)Cc2ccc(Cl)cc2Cl)c1C [CB120] | > 20 µg/mL
80 | Cc1cc(C)c(C)c(OCC(=O)O/N=C(\N)Cc2cccc3ccccc23)c1 [CB121] | > 20 µg/mL
81 | COc1ccccc1C/C(N)=N/OC(=O)CC(c1ccccc1)c1ccccc1 [CB122] | 0.98 µg/mL (≈ 2.52 µM)
82 | COc1ccccc1C/C(N)=N/OC(=O)COc1cccc(C)c1C [CB123] | > 20 µg/mL
83 | COc1ccc(CC(=O)O/N=C(\N)Cc2ccc(OC)c(OC)c2)cc1 [CB124] | > 20 µg/mL
84 | Cc1cc(Cl)ccc1OCC(=O)O/N=C(\N)Cc1ccc([N+](=O)[O-])cc1 [CB125] | > 20 µg/mL
